Target: human DGKζ (Homo sapiens (Human), UniProt Q13574)
Test: Human DGKζ kinase activity inhibition assay (ADP-Glo)
Format: biochemical
Details: in vitro human DGKζ kinase activity inhibition assay; read-out: IC50
Summary of the method: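 ADP-Glo luminescence, reflecting ADP produced, served as the readout of activity. Full-length human DGKζ, FLAG-tagged at the C-terminus and insect-cell expressed, was used; lipid substrate mix was sonicated with octyl-β-D-glucopyranoside in 50 mM MOPS pH 7.4.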

Chain of human DGKζ (Q13574 other isoform, or with tags, fused parts or gaps): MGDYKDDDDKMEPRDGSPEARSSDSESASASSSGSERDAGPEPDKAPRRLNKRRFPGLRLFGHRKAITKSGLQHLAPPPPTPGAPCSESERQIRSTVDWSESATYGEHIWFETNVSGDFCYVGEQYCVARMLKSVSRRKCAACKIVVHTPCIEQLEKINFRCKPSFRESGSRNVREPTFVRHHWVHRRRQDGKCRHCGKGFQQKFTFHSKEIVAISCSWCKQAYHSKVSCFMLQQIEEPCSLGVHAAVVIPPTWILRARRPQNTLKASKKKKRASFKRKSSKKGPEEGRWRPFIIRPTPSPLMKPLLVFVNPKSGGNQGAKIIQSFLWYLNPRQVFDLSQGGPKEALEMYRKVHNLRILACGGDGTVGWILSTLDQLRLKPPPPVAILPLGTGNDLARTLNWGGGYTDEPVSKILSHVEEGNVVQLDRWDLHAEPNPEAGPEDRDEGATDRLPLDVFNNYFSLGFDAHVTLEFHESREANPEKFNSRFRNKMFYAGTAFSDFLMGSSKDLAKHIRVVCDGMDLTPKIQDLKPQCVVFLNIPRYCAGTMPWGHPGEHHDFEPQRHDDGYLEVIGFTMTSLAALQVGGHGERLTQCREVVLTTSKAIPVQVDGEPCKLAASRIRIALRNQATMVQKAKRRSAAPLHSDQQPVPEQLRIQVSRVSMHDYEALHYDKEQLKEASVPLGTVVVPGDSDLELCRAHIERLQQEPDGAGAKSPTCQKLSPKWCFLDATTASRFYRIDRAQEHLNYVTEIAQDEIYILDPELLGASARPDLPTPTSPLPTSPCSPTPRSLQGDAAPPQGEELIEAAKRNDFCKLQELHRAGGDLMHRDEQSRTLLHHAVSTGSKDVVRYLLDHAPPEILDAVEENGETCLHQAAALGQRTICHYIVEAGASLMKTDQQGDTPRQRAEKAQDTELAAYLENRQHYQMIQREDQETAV

SMILES	IC50
CC(C(N)=O)N(c1ccc(F)cc1)c1nc(N)c(C(=O)c2ccc(F)cc2)s1 (racemic) [Example 64, rac-2-(N-[4-amino-5-(4-fluorobenzoyl)thiazol-2-yl]-4-fluoro-anilino)propanamide]	55.8 nM
CC(C(N)=O)N(c1ccc(F)cc1)c1nc(N)c(C(=O)c2ccc(C(=O)NC3CCCCC3)cc2)s1 (racemic) [Example 260, rac-4-[4-amino-2-(N-(2-amino-1-methyl-2-oxo-ethyl)-4-fluoro-anilino)thiazole-5-carbonyl]-N-cyclohexyl-benzamide]	29 nM
CC(C(N)=O)N(c1ccc(F)cc1)c1nc(N)c(C(=O)c2ccc(NC(=O)OCc3ccccc3)nc2)s1 (racemic) [Example 256, rac-benzyl N-[5-[4-amino-2-(N-(2-amino-1-methyl-2-oxo-ethyl)-4-fluoro-anilino)thiazole-5-carbonyl]-2-pyridyl]carbamate]	9 nM
CC(C(N)=O)N(c1ccc(Cl)c(OC(F)F)c1)c1nc(N)c(C(=O)c2ccccc2)s1 (racemic) [Example 238, rac-2-[N-(4-amino-5-benzoyl-thiazol-2-yl)-4-chloro-3-(difluoromethoxy)anilino]propanamide]	667 nM
CC(C(N)=O)N(c1ccc(F)cc1)c1nc(N)c(C(=O)c2ccc(OCC(=O)N3CCC(Cc4ccccc4)CC3)cc2)s1 (racemic) [Example 90, rac-2-(N-[4-amino-5-[4-[2-(4-benzyl-1-piperidyl)-2-oxo-ethoxy]benzoyl]thiazol-2-yl]-4-fluoro-anilino)propanamide]	63.3 nM
CC1CCN(c2ccc(C(=O)c3sc(N(c4ccc(F)cc4)C(C)C(N)=O)nc3N)cn2)CC1 (racemic) [Example 276, rac-2-(N-[4-amino-5-[6-(4-methyl-1-piperidyl)pyridine-3-carbonyl]thiazol-2-yl]-4-fluoro-anilino)propanamide]	29 nM
CC(C(N)=O)N(c1ccc(F)c(F)c1)c1nc(N)c(C(=O)c2ccc(OC(F)F)nc2)s1 (racemic) [Example 163, rac-2-(N-[4-amino-5-[6-(difluoromethoxy)pyridine-3-carbonyl]thiazol-2-yl]-3,4-difluoro-anilino)propanamide]	9 nM
Cc1ccc(C(=O)c2sc(N(c3ccc(F)cc3)C(C)C(N)=O)nc2N)cc1 (single isomer, unassigned) [Example 63.2, 2-(N-[4-amino-5-(4-methylbenzoyl)thiazol-2-yl]-4-fluoro-anilino)propanamide]	18.5 nM
CC(C(N)=O)N(c1ccc(F)cc1)c1nc(N)c(C(=O)c2ccc(C(=O)NC[C@@H](C)O)cc2)s1 (mixture of isomers) [Example 265, 4-[4-amino-2-(N-(2-amino-1-methyl-2-oxo-ethyl)-4-fluoro-anilino)thiazole-5-carbonyl]-N-[(2R)-2-hydroxypropyl]benzamide (mixture of stereoisomers)]	459 nM

Continued by falling IC50, values first:

IC50	SMILES
1020 nM	CCOC(=O)COc1ccc(C(=O)c2sc(N(c3ccc(F)cc3)C(C)C(N)=O)nc2N)cc1 (single isomer, unassigned; enantiomer 1) [Example 81.1, ethyl 2-[4-[4-amino-2-(4-fluoro-N-[2-amino-1-methyl-2-oxo-ethyl]anilino)thiazole-5-carbonyl]phenoxy]acetate (enantiomer 1)]
859 nM	CC(C(N)=O)N(c1ccc(F)cc1)c1nc(N)c(C(=O)c2ccc(NC(=O)OCc3ccccc3)cc2)s1 (single isomer, unassigned) [Example 169.2, Benzyl N-[4-[4-amino-2-(N-(2-amino-1-methyl-2-oxo-ethyl)-4-fluoro-anilino)thiazole-5-carbonyl]phenyl]carbamate]
107 nM	CC(C(N)=O)N(c1ccc(F)cc1)c1nc(N)c(C(=O)c2ccc(Br)nc2)s1 (racemic) [Example 274, rac-2-(N-[4-amino-5-(6-bromopyridine-3-carbonyl)thiazol-2-yl]-4-fluoro-anilino)propanamide]
35 nM	CC(C(N)=O)N(c1ccc(Br)cc1)c1nc(N)c(C(=O)c2ccccc2)s1 (racemic) [Example 193, rac-2-(N-(4-amino-5-benzoyl-thiazol-2-yl)-4-bromo-anilino)propanamide]
